Results published in patent US9617602B2, “Methods and compositions for determining resistance to androgen receptor therapy” (Aragon Pharmaceuticals, Inc., priority 2012, dated 2017).

How the values were obtained:
Type in all cases: cell-based, human
[1] = test system: LNCaP cells; experiment: Proliferation assay (CellTiter-Glo), agonist and antagonist mode; details: for viability at 0.0001 µM: Homo sapiens, 168 h, read-out: Antagonist Proliferation Assay (% Viability); for Agonist Proliferation Assay (% Viability): 7 days
[2] = test system: LNCaP/AR(cs) cells; experiment: as above; details: for viability at 0.0001 µM: Homo sapiens, LNCaP/AR, 168 h, read-out: Antagonist Proliferation Assay (% Viability); for Agonist Proliferation Assay (% Viability): LNCaP/AR(cs), 7 days
[3] = test system: Class 1 ARN-509- and MDV3100-resistant cell lines; experiment: as above; details: for Agonist Proliferation Assay (% Viability): Class 1, 7 days; for viability at 0.0001 µM: Homo sapiens, 168 h, read-out: Antagonist Proliferation Assay (% Viability)
[4] = test system: Class 2 MDV3100- and ARN-509-resistant cell lines; experiment: as above; details: for Agonist Proliferation Assay (% Viability): Class 2, 7 days; for viability at 0.0001 µM: Homo sapiens, 168 h, read-out: Antagonist Proliferation Assay (% Viability)
[5] = test system: LNCaP cells; experiment: Transcriptional reporter assay (probasin-luciferase)
Method: (§1) With the exception of the LNCaP/AR(cs)-Luc cells that contain an integrated androgen responsive reporter, cells were transiently transfected using Lipofectin® (Life Technologies) according to the manufacturer's protocol. […] Following transfection, the cells were incubated for 4 hours.
(§2) Following 48 hour incubation the medium was removed and the cells were lysed in 40 μL of lysis buffer (25 mM Tris Phosphate, 2 mM CDTA, 10% Glycerol, 0.5% Triton X-100, 2 mM DTT).

[6] = test system: LNCaP/AR(cs) cells; experiment: as above
Method: as §1, §2

[7] = test system: Class 1 resistant cell lines; experiment: as above; details: Class 1
Method: as §1, §2

[8] = test system: Class 2 resistant cell lines; experiment: as above; details: Class 2
Method: as §1, §2

[9] = test system: LNCaP cells; experiment: Endogenous gene transcriptional assay (real-time PCR of androgen responsive genes); details: 1 nM R1881 or 30 μM compound, vehicle=1.00
Method: (§3) Total RNA was isolated using the Aurum™ total RNA isolation kit (BIO-RAD, Hercules, Calif.). RNA (1 μg) was reverse transcribed using the iScript cDNA synthesis kit (BIO-RAD, Hercules, Calif.) to produce cDNA. Real-time PCR was performed using the Applied Biosystems 7900HT instrument and SYBR Green PCR Master Mix (Applied Biosystems, Foster City, Calif.). PCR reactions were performed in 6 μL according to the manufacturer's protocol and a thermocycle protocol of 95° C. for 10 minutes followed by 40 cycles of 95° C. for 15 seconds and 58° C. for 1 minute. Androgen responsive gene (PSA, SLUG, TMPRSS2, STEAP4, FKBP5, ORM1, NOV, FASN, NKX3.1, AMIGO2, BDNF, CAMK2N1, HPGD, NCAPD3, PLD1) expression was normalized to GAPDH expression and expressed relative to vehicle treatment of the parental cell line.
(§4) Gene expression was normalized to GAPDH as described above.

[10] = test system: LNCaP/AR(cs) cells; experiment: as above
Method: as §3, §4

[11] = test system: LNCaP ARN-509r1 cells; experiment: as above; details: 1 nM R1881 or 30 μM compound, vehicle=1.00
Method: as §3, §4

[12] = test system: LNCaP ARN-509r2 cells; experiment: as above; details: 1 nM R1881 or 30 μM compound, vehicle=1.00
Method: as §3, §4

[13] = test system: LNCaP/AR-Luc cells; experiment: as above; details: 1 nM R1881 or 30 μM compound, vehicle=1.00
Method: as §3, §4

[14] = test system: AR in LNCaP/AR(cs) cells; experiment: AR chromatin immunoprecipitation (ChIP) of AR target genes; details: 1 nM R1881, 4 hours
Source text: The samples were amplified on the ABI 7900HT instrument.

[15] = [Antagonists] = 50 μM in presence of R1881
[16] = Table 4A, 1 nM R1881 or 30 μM compound, vehicle=1.00
[17] = Tables 9A/9B, 1 nM R1881, vehicle=1.00

SMILES: CC(O)(CS(=O)(=O)c1ccc(F)cc1)C(=O)Nc1ccc(C#N)c(C(F)(F)F)c1 (stereo not shown) [Bicalutamide, bicalutamide]
- viability at 0.0001 µM [1]: < 30%
- Agonist Proliferation Assay (% Viability) ([1]; [Antagonists] = 10 μM): + (‘+’ = <30)
- viability at 0.0001 µM [2]: < 30%
- Agonist Proliferation Assay (% Viability) ([2]; [Antagonists] = 10 μM): + (‘+’ = <30)
- Agonist Proliferation Assay (% Viability) ([3]; [Antagonists] = 10 μM): ++ (‘++’ = >30)
- viability at 0.0001 µM [3]: > 30%
- Agonist Proliferation Assay (% Viability) ([4]; [Antagonists] = 10 μM): + (‘+’ = <30)
- viability at 0.0001 µM [4]: > 30%
- Agonist Transcriptional Reporter Assay (% Max Activity) ([5]; [Antagonists] = 50 μM): + (‘+’ = <5)
- Antagonist Transcriptional Reporter Assay (% Max Activity) [5, 15]: + (‘+’ = <5)
- Agonist Transcriptional Reporter Assay (% Max Activity) ([6]; [Antagonists] = 50 μM): + (‘+’ = <5)
- Antagonist Transcriptional Reporter Assay (% Max Activity) [6, 15]: + (‘+’ = <5)
- Agonist Transcriptional Reporter Assay (% Max Activity) ([7]; [Antagonists] = 50 μM): ++ (‘++’ = >5)
- Antagonist Transcriptional Reporter Assay (% Max Activity) [7, 15]: ++ (‘++’ = >5)
- Agonist Transcriptional Reporter Assay (% Max Activity) ([8]; [Antagonists] = 50 μM): + (‘+’ = <5)
- Antagonist Transcriptional Reporter Assay (% Max Activity) [8, 15]: + (‘+’ = <5)

SMILES: C[C@]1(O)CC[C@H]2[C@@H]3CCC4=CC(=O)CCC4=C3C=C[C@@]21C [R1881, methyltrienolone]
- viability at 0.0001 µM [1]: 100%
- Agonist Proliferation Assay (% Viability) ([1]; [R1881] = 0.1 nM): 100.0%
- viability at 0.0001 µM [2]: 100%
- Agonist Proliferation Assay (% Viability) ([2]; [R1881] = 0.1 nM): 100.0%
- Agonist Proliferation Assay (% Viability) ([3]; [R1881] = 0.1 nM): 100.0%
- viability at 0.0001 µM [3]: 100%
- Effect of R1881 on proliferation of Class 1 cells ([3]; high concentrations): inhibits proliferation
- Agonist Proliferation Assay (% Viability) ([4]; [R1881] = 0.1 nM): 100.0%
- viability at 0.0001 µM [4]: 100%
- Agonist Transcriptional Reporter Assay (% Max Activity) ([5]; [R1881] = 10 nM): >90%
- Antagonist Transcriptional Reporter Assay (% Max Activity) ([5]; [R1881] = 10 nM): >90%
- Agonist Transcriptional Reporter Assay (% Max Activity) ([6]; [R1881] = 10 nM): >90%
- Antagonist Transcriptional Reporter Assay (% Max Activity) ([6]; [R1881] = 10 nM): >90%
- Agonist Transcriptional Reporter Assay (% Max Activity) ([7]; [R1881] = 10 nM): >90%
- Antagonist Transcriptional Reporter Assay (% Max Activity) ([7]; [R1881] = 10 nM): >90%
- Agonist Transcriptional Reporter Assay (% Max Activity) ([8]; [R1881] = 10 nM): >90%
- Antagonist Transcriptional Reporter Assay (% Max Activity) ([8]; [R1881] = 10 nM): >90%
- AMIGO2 gene expression [9]: 0.68
- BDNF gene expression [9]: 0.40
- CAM2KN1 gene expression [9]: 0.13
- FASN gene expression [9]: 5.58
- FKBP5 gene expression [9]: 54.95
- HPGD gene expression [9]: 100.43
- NCAPD3 gene expression [9]: 104.69
- NKX3.1 gene expression [9]: 30.06
- NOV gene expression [9]: 0.15
- ORM1 gene expression [9]: 873.10
- PLD1 gene expression [9]: 0.02
- PSA gene expression [9]: 47.84
- SLUG gene expression [9]: 129.79
- STEAP4 gene expression [9]: 639.15
- TMPRSS2 gene expression [9]: 22.16
- AMIGO2 gene expression [10, 16]: 0.54
- BDNF gene expression [10, 16]: 0.48
- CAM2KN1 gene expression [10, 16]: 0.05
- FASN gene expression [10, 16]: 7.11
- FKBP5 gene expression [10, 16]: 97.01
- HPGD gene expression [10, 16]: 183.55
- NCAPD3 gene expression [10, 16]: 93.05
- NKX3.1 gene expression [10, 16]: 8.82
- NOV gene expression [10, 16]: 0.04
- ORM1 gene expression [10, 16]: 3444.31
- PLD1 gene expression [10, 16]: 0.02
- PSA gene expression [10, 16]: 19.16
- SLUG gene expression [10, 16]: 89.88
- STEAP4 gene expression [10, 16]: 1314.23
- TMPRSS2 gene expression [10, 16]: 17.51
- AMIGO2 gene expression [10, 17]: 0.98
- BDNF gene expression [10, 17]: 0.86
- CAM2KN1 gene expression [10, 17]: 0.04
- FASN gene expression [10, 17]: 4.12
- FKBP5 gene expression [10, 17]: 100.51
- HPGD gene expression [10, 17]: 324.60
- NCAPD3 gene expression [10, 17]: 95.54
- NKX3.1 gene expression [10, 17]: 12.72
- NOV gene expression [10, 17]: 0.05
- ORM1 gene expression [10, 17]: 6987.01
- PLD1 gene expression [10, 17]: 0.03
- PSA gene expression [10, 17]: 22.14
- SLUG gene expression [10, 17]: 91.84
- STEAP4 gene expression [10, 17]: 1498.46
- TMPRSS2 gene expression [10, 17]: 35.42
- AMIGO2 gene expression [11]: 0.21
- BDNF gene expression [11]: 0.31
- CAM2KN1 gene expression [11]: 0.01
- FASN gene expression [11]: 3.12
- FKBP5 gene expression [11]: 53.45
- HPGD gene expression [11]: 61.39
- NCAPD3 gene expression [11]: 90.51
- NKX3.1 gene expression [11]: 8.11
- NOV gene expression [11]: 0.03
- ORM1 gene expression [11]: 1296.13
- PLD1 gene expression [11]: 0.03
- PSA gene expression [11]: 85.63
- SLUG gene expression [11]: 164.28
- STEAP4 gene expression [11]: 1184.45
- TMPRSS2 gene expression [11]: 37.27
- AMIGO2 gene expression [12]: 0.55
- BDNF gene expression [12]: 0.47
- CAM2KN1 gene expression [12]: 0.02
- FASN gene expression [12]: 4.82
- FKBP5 gene expression [12]: 48.50
- HPGD gene expression [12]: 59.30
- NCAPD3 gene expression [12]: 54.95
- NKX3.1 gene expression [12]: 10.20
- NOV gene expression [12]: 0.07
- ORM1 gene expression [12]: 625.99
- PLD1 gene expression [12]: 0.02
- PSA gene expression [12]: 7.89
- SLUG gene expression [12]: 77.17
- STEAP4 gene expression [12]: 377.41
- TMPRSS2 gene expression [12]: 15.14
- AMIGO2 gene expression [13]: 0.54
- BDNF gene expression [13]: 0.18
- CAM2KN1 gene expression [13]: 0.11
- FASN gene expression [13]: 3.48
- FKBP5 gene expression [13]: 20.82
- HPGD gene expression [13]: 2.41
- NCAPD3 gene expression [13]: 17.27
- NKX3.1 gene expression [13]: 11.24
- NOV gene expression [13]: 0.47
- ORM1 gene expression [13]: 7.89
- PLD1 gene expression [13]: 0.15
- PSA gene expression [13]: 2.10
- SLUG gene expression [13]: 48.84
- STEAP4 gene expression [13]: 20.25
- TMPRSS2 gene expression [13]: 3.46
- AR DNA binding (ChIP), LNCaP/AR(cs) cells [14]: promoted AR DNA
